# In patent publication US10941153B2, “Substituted phenethylamine derivatives” (REGENTS OF THE UNIVERSITY OF MINNESOTA, priority 2018, dated 2021):
# Columns and labels:
# [1] = target: T1, σ1 receptor (UniProt Q99720); assay: PDSP binding affinity, sigma-1; design: species or system human
# T1 construct: Ki, Sigma-1; σ1 potency and selectivity, in words; other: relative to compound 4e
# Description: Assay data for compound 53558 against sigma-1 receptor is presented in FIG. 21 and Tables 10 and 11 below: […]
# [2] = target: 5-HT2B receptor (Homo sapiens, UniProt P41595); assay: PDSP GPCR binding affinity, 5-HT2B
# Chain of 5-HT2B receptor (P41595 whole entry): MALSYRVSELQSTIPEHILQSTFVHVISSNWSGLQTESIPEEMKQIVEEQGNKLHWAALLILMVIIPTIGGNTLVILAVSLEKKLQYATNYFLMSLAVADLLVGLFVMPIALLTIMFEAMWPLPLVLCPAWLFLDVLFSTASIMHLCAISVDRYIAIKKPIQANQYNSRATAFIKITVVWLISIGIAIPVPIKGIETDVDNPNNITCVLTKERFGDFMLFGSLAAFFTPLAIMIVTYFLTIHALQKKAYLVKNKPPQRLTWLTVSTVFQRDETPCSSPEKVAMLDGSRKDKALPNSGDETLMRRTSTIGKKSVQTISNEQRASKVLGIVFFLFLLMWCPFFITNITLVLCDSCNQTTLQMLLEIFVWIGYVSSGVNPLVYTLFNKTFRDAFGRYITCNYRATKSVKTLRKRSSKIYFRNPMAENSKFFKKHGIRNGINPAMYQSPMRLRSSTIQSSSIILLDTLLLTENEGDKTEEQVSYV
# Description: (§1) In particular, the Ki (nM) value is provided. […] FIGS. 14-15 are graphical views of Log P vs. Ki, 5-HT2B receptor and Log P vs. Ki, sigma-1 receptor, respectively, summarizing the data presented in Table 6, according to one or more embodiments of the present disclosure. Assay data for compound 53545 against 5-HT7A receptor is presented in FIG. 18 and Tables 8-9 provided below:
# Assay data for compound 53529 against 5-HT2B receptor is presented in FIG. 22 and Tables 12-13 provided below: […]
# [3] = target: 5-HT7 receptor (Homo sapiens, UniProt P34969); assay: PDSP GPCR binding affinity, 5-HT7; details: for 5-HT7 potency, in words: relative to compound 4i
# Chain of 5-HT7 receptor (P34969 1-445 isoform P34969-2): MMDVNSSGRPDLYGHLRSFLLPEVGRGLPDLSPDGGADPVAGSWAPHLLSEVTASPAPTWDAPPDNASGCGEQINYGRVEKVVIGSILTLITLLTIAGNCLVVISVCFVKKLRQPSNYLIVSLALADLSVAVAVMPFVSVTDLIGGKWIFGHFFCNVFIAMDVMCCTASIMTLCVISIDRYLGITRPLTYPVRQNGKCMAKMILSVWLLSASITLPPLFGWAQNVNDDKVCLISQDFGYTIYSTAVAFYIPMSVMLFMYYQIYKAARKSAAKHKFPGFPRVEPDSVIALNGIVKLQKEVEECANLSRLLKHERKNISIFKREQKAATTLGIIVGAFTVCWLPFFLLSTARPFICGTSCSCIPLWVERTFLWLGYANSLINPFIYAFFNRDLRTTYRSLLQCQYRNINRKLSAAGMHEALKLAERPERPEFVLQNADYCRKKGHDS
# Description: as §1, with “below: […]” for “below:”
# [4] = tested on: human GPCR (serotonin, adrenergic, dopamine, histamine, muscarinic, opioid, sigma and others); assay: PDSP broad GPCR screen; details: wider array of GCPR, Table 5
# Description: The G-Protein-coupled receptor (GPCR) binding affinity of the compounds of the present disclosure was assessed through the Psychoactive Drug Screening Program.
# An initial screen of three primary amines was submitted. […] The molecules were screened across a wide range of human GPCR including serotonin (5-HT), α- and β-adrenergic (Alpha and Beta), dopamine (D), histamine (H), muscarinic (M), opioid (OR), sigma (σ), and others (Table 1).
# [5] = target: T2, 5-HT1A receptor (Homo sapiens, UniProt P08908); assay: PDSP GPCR binding affinity, 5-HT1A
# T2 sequence (P08908 1-422): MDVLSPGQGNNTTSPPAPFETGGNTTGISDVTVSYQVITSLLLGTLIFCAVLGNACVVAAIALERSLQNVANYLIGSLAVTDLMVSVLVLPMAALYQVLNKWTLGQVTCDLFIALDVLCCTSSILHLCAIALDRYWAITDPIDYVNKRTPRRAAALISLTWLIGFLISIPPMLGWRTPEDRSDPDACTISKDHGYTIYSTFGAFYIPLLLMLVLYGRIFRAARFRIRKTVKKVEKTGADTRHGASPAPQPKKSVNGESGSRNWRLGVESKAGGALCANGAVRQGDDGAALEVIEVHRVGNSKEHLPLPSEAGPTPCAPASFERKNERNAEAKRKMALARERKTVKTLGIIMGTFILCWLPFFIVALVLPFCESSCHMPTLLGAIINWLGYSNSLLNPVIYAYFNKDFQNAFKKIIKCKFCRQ
# Description: as §1, with “below: […]” for “below:”
compound,measurement,setting,value
C[C@@]12COc3cc(OCc4ccccc4)ccc3[C@@H]1CCN2 [Compound 4c],"σ1 binding, in words",[1],potent σ1 ligand
C[C@@]12COc3cc(O)ccc3[C@@H]1CCN2 [Compound 4d],"σ1 binding, in words",[1],detrimental to activity
Cc1cc(C)c2c(c1)OC[C@@]1(C)NCC[C@@H]21 [Compound 4f],"5-HT2B binding, in words",[2],enhanced 5-HT2B binding
CC12CN(c3ccccc3)c3ccccc3C1CCN2 (stereo not shown) [Compound 4i],Ki,[3],6.3 nM
same,"selectivity for 5-HT7 vs next most sensitive receptor, σ1",[3],~75 fold
same,activity across the additional GCPR investigated,[4],minimal activity
same,Ki,[5],> 10000 nM
CN1CC[C@H]2c3ccccc3N(c3ccccc3)C[C@]21C [Compound 10c],"5-HT7 potency, in words",[3],further enhanced
CC(=O)N1CC[C@H]2c3ccccc3N(c3ccccc3)C[C@]21C [Compound 11c],"5-HT7 potency, in words",[3],removed activity
SB 206553 [reference compound],Ki,"[2]; 5-HT2B receptor, competition binding curve, SB 206553 as reference, read-out: Ki (Table 12)",9.79 nM
